ChEMBL document CHEMBL1155424, “3D-QSAR and docking studies on transforming growth factor (TGF)-beta receptor 1 antagonists” (Bioorg Med Chem Lett, 2010)

Experiments:
[1] = biological target: T1, TGF-beta receptor type-1 (Homo sapiens) (UniProt P36897)
T1 sequence (whole entry): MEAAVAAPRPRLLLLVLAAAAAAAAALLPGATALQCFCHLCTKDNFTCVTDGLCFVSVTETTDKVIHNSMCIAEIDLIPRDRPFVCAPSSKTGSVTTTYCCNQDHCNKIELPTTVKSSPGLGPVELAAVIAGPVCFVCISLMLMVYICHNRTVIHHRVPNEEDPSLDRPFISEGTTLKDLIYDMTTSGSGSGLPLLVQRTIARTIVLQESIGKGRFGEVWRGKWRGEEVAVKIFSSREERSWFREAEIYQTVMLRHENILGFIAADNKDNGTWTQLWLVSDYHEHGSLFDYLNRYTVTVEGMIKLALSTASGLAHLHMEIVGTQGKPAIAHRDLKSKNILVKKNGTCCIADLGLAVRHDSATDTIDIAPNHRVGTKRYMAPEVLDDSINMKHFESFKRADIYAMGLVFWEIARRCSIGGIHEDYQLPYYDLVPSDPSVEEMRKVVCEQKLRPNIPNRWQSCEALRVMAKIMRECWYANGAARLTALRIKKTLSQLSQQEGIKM
Description: Antagonistic activity at TGFBR1

[2] = biological target: T2, TGF-beta receptor type-1 (Homo sapiens, UniProt P36897)
T2 sequence (P36897 whole entry): T1 sequence (whole entry)
Description: Antagonistic activity at TGFBR1

| Structure (SMILES) | logIC50 [1] | also measured |
| --- | --- | --- |
| Cc1cccc(-c2[nH]c(CNc3ccc(C(N)=O)cc3)nc2-c2ccc3c(c2)OCO3)n1 | -0.582 | – |
| Cc1cccc(-c2[nH]c(CNc3cccc(C#N)c3)nc2-c2ccc3nccnc3c2)n1 | -1.92 | – |
| CCc1cccc(-c2[nH]c(CNc3cccc(C(N)=O)c3)nc2-c2ccc3nccnc3c2)n1 | -1.82 | – |
| CCc1cccc(-c2[nH]c(CNc3cccc(C#N)c3)nc2-c2ccc3nccnc3c2)n1 | -0.924 | – |
| Cc1cccc(-c2[nH]c(CNc3cccc(C(N)=O)c3)nc2-c2ccc3c(c2)OCO3)n1 | -1.68 | – |
| Cc1cccc(-c2[nH]c(CNc3ccc(C#N)cc3)nc2-c2ccc3c(c2)OCO3)n1 | -0.759 | IC50 [2]: 0.171 µM |
| Cc1cccc(-c2[nH]c(NCc3cccc(C#N)c3)nc2-c2ccc3c(c2)OCO3)n1 | -1.62 | – |
| Cc1cccc(-c2[nH]c(NCc3ccc(C#N)cc3)nc2-c2ccc3c(c2)OCO3)n1 | -0.815 | – |
| Cc1cccc(-c2[nH]c(CNc3ccc(C#N)cc3)nc2-c2ccc3nccnc3c2)n1 | -1.38 | – |
| Cc1cccc(-c2[nH]c(C(C)(C)C)nc2-c2ccc3c(c2)OCO3)n1 | -1.33 | – |
| N#Cc1ccc(-c2nc(-c3ccc4c(c3)OCO4)c(-c3ccccn3)[nH]2)cc1 | 0.47 | – |
| Cc1cccc(-c2[nH]c(CNc3ccc(C(N)=O)cc3)nc2-c2ccc3nccnc3c2)n1 | -1.12 | – |
| CCc1cccc(-c2[nH]c(CNc3ccc(C#N)cc3)nc2-c2ccc3c(c2)OCO3)n1 | -0.443 | – |
| CCc1cccc(-c2[nH]c(CNc3cccc(C(N)=O)c3)nc2-c2ccc3c(c2)OCO3)n1 | -1.34 | – |
| Cc1cccc(-c2[nH]c(CNc3cccc(C#N)c3)nc2-c2ccc3c(c2)OCO3)n1 | -1.34 | – |
| CCc1cccc(-c2[nH]c(CNc3ccc(C(N)=O)cc3)nc2-c2ccc3c(c2)OCO3)n1 | -0.415 | – |
| O=C(O)c1ccc(-c2nc(-c3ccc4c(c3)OCO4)c(-c3ccccn3)[nH]2)cc1 | -0.77 | – |
| CCc1cccc(-c2[nH]c(CNc3ccc(C#N)cc3)nc2-c2ccc3nccnc3c2)n1 | – | logKi [1]: -1.32 |
| Cc1cccc(-c2[nH]c(CNc3cccc(C(N)=O)c3)nc2-c2ccc3nccnc3c2)n1 | – | logKi [1]: -2 |
| OCc1ccc(-c2nc(-c3ccccn3)c(-c3ccc4c(c3)OCO4)[nH]2)cc1 | – | logKi [1]: -0.585 |
| CCc1cccc(-c2[nH]c(CNc3cccc(C#N)c3)nc2-c2ccc3c(c2)OCO3)n1 | -1.14 | – |
